Results as given in ChEMBL document CHEMBL1126454, “Syntheses of new TXA2/PGH2-receptor antagonists and their biological properties” (Bioorg Med Chem Lett, 1992).

Each compound was assayed against T1, Thromboxane A2 receptor (Homo sapiens) (UniProt P21731) (assay: Competition factor for Thromboxane A2 (TXA2) / Prostaglandin H2 (PGH2)-receptor was determined by CF=(ID50-test)/(ID50-standard); not parallel).
T1 sequence (whole entry): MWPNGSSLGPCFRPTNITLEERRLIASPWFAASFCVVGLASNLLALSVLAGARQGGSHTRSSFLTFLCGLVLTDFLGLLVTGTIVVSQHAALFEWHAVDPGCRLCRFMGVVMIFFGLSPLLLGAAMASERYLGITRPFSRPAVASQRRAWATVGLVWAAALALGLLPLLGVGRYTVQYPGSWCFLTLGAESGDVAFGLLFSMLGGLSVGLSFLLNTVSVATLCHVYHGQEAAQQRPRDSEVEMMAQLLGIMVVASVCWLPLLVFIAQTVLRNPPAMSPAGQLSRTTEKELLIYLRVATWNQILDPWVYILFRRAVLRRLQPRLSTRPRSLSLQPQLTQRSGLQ

With `O=C(O)CCCCC[C@H]1[C@H](CNS(=O)(=O)c2ccc(Cl)c(Cl)c2)C2CC1(c1ccc(-c3ccccc3)cc1)CO2` (some centres not stated) as the compound, how does the CF read?
The CF was 6.

Which CF does the source give for `O=C(O)CCC/C=C\C[C@H]1[C@H](CNS(=O)(=O)c2ccc(Cl)c(Cl)c2)C2CC1(c1ccc(-c3ccccc3)cc1)CO2` (some centres not stated) here?
The CF was 4.2.

With `O=C(O)CC/C=C\C[C@H]1[C@H](CNS(=O)(=O)c2ccc(Cl)cc2)C2CC1(c1ccc(-c3ccccc3)cc1)CO2` (some centres not stated) as the compound, how does the CF read?
Its CF is 0.1.

How did the CF turn out when `Cc1ccc(S(=O)(=O)NC[C@@H]2C3CC(c4ccc(-c5ccccc5)cc4)(CO3)[C@H]2CC=CCCCC(=O)O)cc1` (some centres not stated) was run?
The CF was 4.

With `O=C(O)CCCCC[C@H]1[C@H](CNS(=O)(=O)c2ccc(Cl)cc2)C2CC1(c1ccc(-c3ccccc3)cc1)CO2` (some centres not stated) as the compound, how does the CF read?
Its CF is 0.3.

How did the CF turn out when `O=C(O)CCC/C=C\C[C@H]1[C@H](CNS(=O)(=O)c2ccc(Cl)cc2)C2CC1(c1ccc(-c3ccccc3)cc1)CO2` (some centres not stated) was run?
The CF was 0.4.

Each compound was assayed against T1, Thromboxane A2 receptor (Homo sapiens) (assay: Competition factor for Thromboxane A2 (TXA2) / Prostaglandin H2 (PGH2)-receptor was determined by CF=(ID50-test)/(ID50-standard); antagonist).
Type: functional

With `O=C(O)CCC/C=C/C[C@@H]1[C@@H](COCc2ccccc2)C2CC1(c1ccccc1)CO2` (some centres not stated) as the compound, how does the CF read?
Its CF is 300.

What follows are compounds tested against T1, Thromboxane A2 receptor (Homo sapiens) (assay: Competition factor for Thromboxane A2 (TXA2) / Prostaglandin H2 (PGH2)-receptor was determined by CF=(ID50-test)/(ID50-standard)).

Which CF does the source give for `O=C(O)CCCCC[C@H]1[C@H](CNS(=O)(=O)c2ccc(Cl)c(Cl)c2)C2CC1(c1ccc(-c3ccccc3)cc1)CO2` (some centres not stated) here?
The CF was 5.

How did the CF turn out when `O=C(O)CCC/C=C/C[C@H]1[C@H](NS(=O)(=O)c2ccc(F)cc2)C2CC1(c1ccc(-c3ccccc3)cc1)CO2` (some centres not stated) was run?
Its CF is 2.

`CCC#CC[C@H](C)[C@H](O)C#C[C@@H]1C2CC(c3ccc(F)cc3)(CO2)[C@H]1C/C=C/CCCC(=O)O` (some centres not stated) was tested. Which CF did it give?
The CF was 4.

How did the CF turn out when `CCCCC[C@H](O)/C=C/[C@H]1C2CC(CCc3ccccc3)(CO2)[C@@H]1C/C=C/CCCC(=O)O` (some centres not stated) was run?
The CF was 420.

For `CCCC#CC12COC(C1)[C@H](COCc1ccccc1)[C@H]2C/C=C/CCCC(=O)O` (some centres not stated), which CF is on record?
The CF was 90.

`O=C(O)CCC/C=C/C[C@H]1[C@H](/C=N/Oc2ccc(F)cc2)C2CC1(c1cccc(F)c1)CO2` (some centres not stated) was tested. Which CF did it give?
The CF was 10.

For `O=C(O)CCC/C=C/C[C@H]1[C@H](NS(=O)(=O)c2ccc(F)cc2)C2CC1(c1ccc(F)cc1)CO2` (some centres not stated), which CF is on record?
The CF was 120.

For `CCCCC[C@H](O)/C=C/[C@H]1C2CC(Cc3ccccc3)(CO2)[C@@H]1C/C=C/CCCC(=O)O` (some centres not stated), which CF is on record?
The CF was 250.

Which CF does the source give for `CC12COC(C1)[C@H](COCc1ccccc1)[C@H]2C/C=C/CCCC(=O)O` (some centres not stated) here?
Its CF is over 1000.

For `O=C(O)CCCCC[C@H]1[C@H](CNS(=O)(=O)c2ccc(F)cc2)C2CC1(c1ccc(-c3ccccc3)cc1)CO2` (some centres not stated), which CF is on record?
The CF was 0.1.

How did the CF turn out when `O=C(O)CCC/C=C/C[C@H]1[C@H](NS(=O)(=O)c2ccc(F)cc2)C2CC1(c1ccc(O)cc1)CO2` (some centres not stated) was run?
The CF was 30.

Which CF does the source give for `O=C(O)CCC/C=C/C[C@H]1[C@H](NS(=O)(=O)c2ccc(F)cc2)C2CC1(c1cccc(F)c1)CO2` (some centres not stated) here?
Its CF is 250.

Which CF does the source give for `O=C(O)CCC/C=C/C[C@@H]1[C@@H](COCc2ccccc2)C2CC1(c1ccc(F)cc1)CO2` (some centres not stated) here?
Its CF is 125.

With `Cc1ccc(S(=O)(=O)N[C@@H]2C3CC(c4ccc(F)cc4)(CO3)[C@H]2C/C=C/CCCC(=O)O)cc1` (some centres not stated) as the compound, how does the CF read?
The CF was 170.

Which CF does the source give for `Cc1ccc(S(=O)(=O)N[C@@H]2C3CC(c4ccc(-c5ccccc5)cc4)(CO3)[C@H]2C/C=C/CCCC(=O)O)cc1` (some centres not stated) here?
The CF was 2.

How did the CF turn out when `Cc1ccc(S(=O)(=O)NC[C@@H]2C3CC(c4ccc(-c5ccccc5)cc4)(CO3)[C@H]2CCCCCC(=O)O)cc1` (some centres not stated) was run?
The CF was 0.1.

For `O=C(O)CCC/C=C/C[C@H]1[C@H](/C=N/Oc2ccc(F)cc2)C2CC1(c1ccc(F)cc1)CO2` (some centres not stated), which CF is on record?
Its CF is 16.

How did the CF turn out when `O=C(O)CCC/C=C/C[C@H]1[C@H](/C=N/Oc2ccc(F)cc2)C2CC1(c1ccc(-c3ccccc3)cc1)CO2` (some centres not stated) was run?
Its CF is 16.

How did the CF turn out when `O=C(O)CC/C=C\C[C@H]1[C@H](CNS(=O)(=O)c2ccc(F)cc2)C2CC1(c1ccc(-c3ccccc3)cc1)CO2` (some centres not stated) was run?
The CF was 0.05.

`O=C(O)CCC/C=C/C[C@@H]1[C@@H](COCc2ccccc2)C2CC1(C#Cc1ccccc1)CO2` (stereo in doubt) was tested. Which CF did it give?
Its CF is 30.

`O=C(O)CCC/C=C/C[C@@H]1[C@@H](COCc2ccccc2)C2CC1(Cc1ccc(-c3ccccc3)cc1)CO2` (some centres not stated) was tested. Which CF did it give?
Its CF is 800.

How did the CF turn out when `O=C(O)CCC/C=C/C[C@H]1[C@H](COCc2ccccc2)C2CC1(C#Cc1ccccc1)CO2` (some centres not stated) was run?
The CF was 12.

Which CF does the source give for `Cc1ccc(S(=O)(=O)NC[C@@H]2C3CC(c4ccc(-c5ccccc5)cc4)(CO3)[C@H]2C/C=C\CCC(=O)O)cc1` (some centres not stated) here?
The CF was 0.05.

How did the CF turn out when `CCCCC[C@H](O)/C=C/[C@@H]1C2CC(c3ccc(F)cc3)(CO2)[C@H]1C/C=C/CCCC(=O)O` (some centres not stated) was run?
Its CF is 25.

For `Cc1ccc(S(=O)(=O)N[C@@H]2C3CC(c4cccc(F)c4)(CO3)[C@H]2C/C=C/CCCC(=O)O)cc1` (some centres not stated), which CF is on record?
The CF was 120.

For `O=C(O)CCC/C=C/C[C@@H]1[C@@H](COCc2ccccc2)C2CC1(C#Cc1ccccc1)CO2` (stereo in doubt; 8a), which CF is on record?
Its CF is 30.

`CCCCC[C@H](O)/C=C/[C@H]1C2CC(c3ccc(F)cc3)(CO2)[C@@H]1C/C=C/CCCC(=O)O` (some centres not stated) was tested. Which CF did it give?
The CF was 650.

For `O=C(O)CCCCCC[C@H]1[C@H](CNS(=O)(=O)c2ccc(Cl)c(Cl)c2)C2CC1(c1ccc(-c3ccccc3)cc1)CO2` (some centres not stated), which CF is on record?
The CF was 12.

For `O=C(O)CCC/C=C/C[C@H]1[C@H](COCc2ccccc2)C2CC1(c1ccc(F)cc1)CO2` (some centres not stated), which CF is on record?
The CF was 60.

Which CF does the source give for `O=C(O)CCCCCC[C@H]1[C@H](CNS(=O)(=O)c2ccc(Cl)cc2)C2CC1(c1ccc(-c3ccccc3)cc1)CO2` (some centres not stated) here?
Its CF is 1.4.

`CCC#CC[C@H](C)[C@H](O)/C=C/[C@@H]1C2CC(c3ccc(F)cc3)(CO2)[C@H]1C/C=C/CCCC(=O)O` (some centres not stated) was tested. Which CF did it give?
The CF was 26.

`O=C(O)CCC/C=C/C[C@@H]1[C@@H](/C=C/[C@@H](O)COc2ccc(F)cc2)C2CC1(c1ccc(F)cc1)CO2` (some centres not stated) was tested. Which CF did it give?
Its CF is 375.

For `N#Cc1ccc(COC[C@H]2C3CC(c4ccc(F)cc4)(CO3)[C@@H]2C/C=C/CCCC(=O)O)cc1` (some centres not stated), which CF is on record?
The CF was 900.

How did the CF turn out when `O=C(O)CCC/C=C/C[C@H]1[C@H](COCc2ccccc2)C2CC1(c1ccccc1)CO2` (some centres not stated) was run?
The CF was 60.

How did the CF turn out when `O=C(O)CCC/C=C/C[C@@H]1[C@@H](COCc2ccccc2)C2CC1(c1ccccc1)CO2` (some centres not stated) was run?
Its CF is 300.

With `O=C(O)CCC/C=C/C[C@@H]1[C@@H](COCc2ccccc2)C2CC1(Cc1ccccc1)CO2` (some centres not stated) as the compound, how does the CF read?
Its CF is 300.

For `O=C(O)CCC/C=C/C[C@H]1C2COC(C2)[C@@H]1COCc1ccccc1` (some centres not stated), which CF is on record?
Its CF is over 1000.

How did the CF turn out when `Cc1ccc(S(=O)(=O)N[C@@H]2C3CC(c4ccc(O)cc4)(CO3)[C@H]2C/C=C/CCCC(=O)O)cc1` (some centres not stated) was run?
Its CF is 520.

What follows are compounds tested against T1, Thromboxane A2 receptor (Homo sapiens) (assay: Competition factor for Thromboxane A2 (TXA2) / Prostaglandin H2 (PGH2)-receptor was determined by CF=(ID50-test)/(ID50-standard); agonist).
Type: functional

With `O=C(O)CCC/C=C/C[C@@H]1[C@@H](COCc2ccccc2)C2CC1(CCc1ccccc1)CO2` (some centres not stated) as the compound, how does the CF read?
The CF was 750.

Which CF does the source give for `CCCCC[C@H](O)/C=C/[C@H]1C2CC(CO2)[C@@H]1CC=CCCCC(=O)O` (some centres not stated) here?
The CF was 36.

`CCCCC[C@H](O)/C=C/[C@H]1C2CC(C)(CO2)[C@@H]1C/C=C/CCCC(=O)O` (some centres not stated) was tested. Which CF did it give?
The CF was 320.

These compounds were tested against T1, Thromboxane A2 receptor (Homo sapiens) (assay: Competition factor for Thromboxane A2 (TXA2) / Prostaglandin H2 (PGH2)-receptor was determined by CF=(ID50-test)/(ID50-standard); partial agonist).
Type: functional

For `N#Cc1ccc(COC[C@@H]2C3CC(c4ccc(F)cc4)(CO3)[C@H]2C/C=C/CCCC(=O)O)cc1` (some centres not stated), which CF is on record?
Its CF is 6.

`CCC#CC[C@H](C)[C@H](O)/C=C/[C@@H]1C2CC(c3ccc(-c4ccccc4)cc3)(CO2)[C@H]1C/C=C/CCCC(=O)O` (some centres not stated) was tested. Which CF did it give?
The CF was 20.

For `O=C(O)CCC/C=C/C[C@H]1[C@H](/C=C/[C@@H](O)COc2ccc(F)cc2)C2CC1(c1ccc(F)cc1)CO2` (some centres not stated), which CF is on record?
Its CF is 2.

How did the CF turn out when `CCC#CC[C@H](C)[C@H](O)C#C[C@@H]1C2CC(c3ccc(-c4ccccc4)cc3)(CO2)[C@H]1C/C=C/CCCC(=O)O` (some centres not stated) was run?
The CF was 12.
